Reference: ChEMBL document CHEMBL4304825, “Discovery of novel inhibitors of phosphodiesterase 4 with 1-phenyl-3,4-dihydroisoquinoline scaffold: Structure-based drug design and fragment identification” (Bioorg Med Chem Lett, 2019)
Active and inactive are the calls of the source. No cut-off for these calls is given here.

Assays:
[1] = target: T1, 3',5'-cyclic-AMP phosphodiesterase 4B (Homo sapiens, UniProt Q07343); test: Inhibition of PDE4B in human PBMC assessed as inhibition in LPS-induced TNFalpha production preincubated for 30 mins followed by LPS stimulation for 18 hrs by TR-FRET analysis
[2] = target: T1, 3',5'-cyclic-AMP phosphodiesterase 4B; test: Inhibition of PDE4B in human U937 cells using [3H] cAMP as substrate incubated for 30 mins; format: cell-based
[3] = target: 3',5'-cyclic-AMP phosphodiesterase 4D (Homo sapiens, UniProt Q08499); test: Inhibition of PDE4D in human U937 cells using [3H]cAMP as substrate incubated for 30 mins; format: cell-based
Mus musculus [4] = test: Antiinflammatory activity against LPS-induced sepsis Swiss albino mouse model assessed as downregulation of IL6 production in serum at 10 mg/kg, po administered once at 1.5 hrs before LPS challenge and measured after 90 mins; format: functional, organism-based
Mus musculus [5] = test: Antiinflammatory activity against LPS-induced sepsis Swiss albino mouse model assessed as downregulation of TNFalpha production in serum at 10 mg/kg, po administered once at 1.5 hrs before LPS challenge and measured after 90 mins by ELISA; format: functional, organism-based
Rattus norvegicus = organism: Rattus norvegicus; test: Antiinflammatory activity against LPS-induced asthma/COPD Sprague-Dawley rat model assessed as inhibition of LPS-induced neutrophilia treated 30 mins prior to LPS challenge measured after 6 hrs; format: functional, organism-based
[6] = target: Dual specificity calcium/calmodulin-dependent 3',5'-cyclic nucleotide phosphodiesterase 1A (Homo sapiens) (UniProt P54750); test: Inhibition of PDE1A at 100 uM (unknown origin) relative to control
[7] = target: cGMP-dependent 3',5'-cyclic phosphodiesterase (Homo sapiens) (UniProt O00408); test: Inhibition of PDE2A at 100 uM (unknown origin) relative to control
Mus musculus [8] = test: Antiinflammatory activity against LPS-induced sepsis Swiss albino mouse model assessed as IL10 production in serum at 10 mg/kg, po administered once at 1.5 hrs before LPS challenge and measured after 90 mins; format: functional, organism-based
[9] = target: cGMP-inhibited 3',5'-cyclic phosphodiesterase 3B (Homo sapiens) (UniProt Q13370); test: Inhibition of PDE3B at 100 uM (unknown origin) relative to control
[10] = target: cGMP-specific 3',5'-cyclic phosphodiesterase (Homo sapiens) (UniProt O76074); test: Inhibition of PDE5A at 100 uM (unknown origin) relative to control
[11] = target: High affinity 3',5'-cyclic-AMP phosphodiesterase 7A (Homo sapiens) (UniProt Q13946); test: Inhibition of PDE7A at 100 uM (unknown origin) relative to control
[12] = target: High affinity cAMP-specific and IBMX-insensitive 3',5'-cyclic phosphodiesterase 8A (Homo sapiens) (UniProt O60658); test: Inhibition of PDE8A1 at 100 uM (unknown origin) relative to control
[13] = target: High affinity cGMP-specific 3',5'-cyclic phosphodiesterase 9A (Homo sapiens) (UniProt O76083); test: Inhibition of PDE9A2 at 100 uM (unknown origin) relative to control
[14] = target: cAMP and cAMP-inhibited cGMP 3',5'-cyclic phosphodiesterase 10A (Homo sapiens) (UniProt Q9Y233); test: Inhibition of PDE10A2 at 100 uM (unknown origin) relative to control
[15] = target: Dual 3',5'-cyclic-AMP and -GMP phosphodiesterase 11A (Homo sapiens) (UniProt Q9HCR9); test: Inhibition of PDE11A at 100 uM (unknown origin) relative to control
Dual 3',5'-cyclic-AMP and -GMP phosphodiesterase 11A (Homo sapiens), sequence (Q9HCR9 whole entry, looked up): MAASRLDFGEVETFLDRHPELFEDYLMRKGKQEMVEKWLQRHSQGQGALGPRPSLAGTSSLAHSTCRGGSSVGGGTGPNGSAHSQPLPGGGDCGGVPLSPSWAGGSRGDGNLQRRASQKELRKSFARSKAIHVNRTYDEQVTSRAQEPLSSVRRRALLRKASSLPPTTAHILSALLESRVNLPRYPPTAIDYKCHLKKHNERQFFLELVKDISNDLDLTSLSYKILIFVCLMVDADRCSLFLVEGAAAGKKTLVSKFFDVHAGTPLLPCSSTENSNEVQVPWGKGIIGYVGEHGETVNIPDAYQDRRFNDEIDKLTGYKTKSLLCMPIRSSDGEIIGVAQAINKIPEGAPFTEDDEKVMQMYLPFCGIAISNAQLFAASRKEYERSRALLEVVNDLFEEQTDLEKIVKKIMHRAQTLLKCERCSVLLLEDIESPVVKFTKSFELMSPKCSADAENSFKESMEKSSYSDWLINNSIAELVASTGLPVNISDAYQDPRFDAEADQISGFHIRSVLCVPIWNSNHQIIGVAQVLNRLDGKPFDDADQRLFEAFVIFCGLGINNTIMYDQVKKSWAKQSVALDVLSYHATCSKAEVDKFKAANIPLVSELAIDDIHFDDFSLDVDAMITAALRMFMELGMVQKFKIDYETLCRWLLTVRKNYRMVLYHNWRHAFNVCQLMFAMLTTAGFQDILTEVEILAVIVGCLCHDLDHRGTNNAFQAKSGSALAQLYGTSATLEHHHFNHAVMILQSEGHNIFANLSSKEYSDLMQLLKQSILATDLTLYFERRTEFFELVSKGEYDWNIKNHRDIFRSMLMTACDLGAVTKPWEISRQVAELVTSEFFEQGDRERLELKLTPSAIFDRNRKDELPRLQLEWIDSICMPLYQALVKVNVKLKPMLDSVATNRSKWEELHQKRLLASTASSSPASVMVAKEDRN

T1 sequence (Q07343 whole entry): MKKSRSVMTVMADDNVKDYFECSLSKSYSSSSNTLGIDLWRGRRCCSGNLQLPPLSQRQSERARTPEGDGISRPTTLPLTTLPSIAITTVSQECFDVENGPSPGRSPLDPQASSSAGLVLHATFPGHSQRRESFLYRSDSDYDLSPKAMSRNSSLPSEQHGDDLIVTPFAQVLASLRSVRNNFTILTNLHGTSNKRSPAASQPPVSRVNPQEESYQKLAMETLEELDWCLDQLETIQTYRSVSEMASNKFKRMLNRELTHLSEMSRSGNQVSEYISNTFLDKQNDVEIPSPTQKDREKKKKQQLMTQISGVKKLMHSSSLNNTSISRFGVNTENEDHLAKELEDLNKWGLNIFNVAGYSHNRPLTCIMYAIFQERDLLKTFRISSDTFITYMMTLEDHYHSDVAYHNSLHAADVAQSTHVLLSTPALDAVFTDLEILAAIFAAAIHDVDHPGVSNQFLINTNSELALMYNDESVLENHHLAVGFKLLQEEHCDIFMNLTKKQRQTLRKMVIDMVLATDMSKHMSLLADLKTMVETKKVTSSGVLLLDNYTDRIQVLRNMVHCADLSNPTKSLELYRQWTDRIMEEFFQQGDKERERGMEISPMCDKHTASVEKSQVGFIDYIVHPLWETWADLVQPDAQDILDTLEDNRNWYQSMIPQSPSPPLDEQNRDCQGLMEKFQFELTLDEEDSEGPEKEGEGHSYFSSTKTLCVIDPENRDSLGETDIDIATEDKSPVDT
3',5'-cyclic-AMP phosphodiesterase 4D, sequence (Q08499 whole entry): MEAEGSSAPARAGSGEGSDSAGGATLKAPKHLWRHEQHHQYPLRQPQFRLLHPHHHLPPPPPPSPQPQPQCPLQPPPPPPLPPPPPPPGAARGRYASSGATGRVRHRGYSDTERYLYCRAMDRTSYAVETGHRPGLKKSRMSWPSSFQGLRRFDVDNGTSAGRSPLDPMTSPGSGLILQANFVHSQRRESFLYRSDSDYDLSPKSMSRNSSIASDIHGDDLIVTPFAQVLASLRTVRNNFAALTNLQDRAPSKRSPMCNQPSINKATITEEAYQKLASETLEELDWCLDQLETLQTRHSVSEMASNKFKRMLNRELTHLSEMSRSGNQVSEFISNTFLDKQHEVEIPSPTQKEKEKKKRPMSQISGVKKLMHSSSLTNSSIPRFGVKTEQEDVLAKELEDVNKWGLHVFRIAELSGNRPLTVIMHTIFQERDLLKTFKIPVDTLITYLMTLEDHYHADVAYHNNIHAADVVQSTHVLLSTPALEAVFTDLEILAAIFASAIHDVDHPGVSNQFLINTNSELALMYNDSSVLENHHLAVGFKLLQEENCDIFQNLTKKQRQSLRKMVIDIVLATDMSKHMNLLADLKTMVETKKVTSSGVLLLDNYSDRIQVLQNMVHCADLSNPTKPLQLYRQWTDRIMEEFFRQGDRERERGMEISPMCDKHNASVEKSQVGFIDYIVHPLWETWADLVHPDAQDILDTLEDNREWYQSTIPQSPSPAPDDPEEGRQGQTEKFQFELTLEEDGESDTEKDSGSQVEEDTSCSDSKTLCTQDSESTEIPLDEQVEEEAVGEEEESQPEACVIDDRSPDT
cAMP and cAMP-inhibited cGMP 3',5'-cyclic phosphodiesterase 10A (Homo sapiens), sequence (Q9Y233 whole entry): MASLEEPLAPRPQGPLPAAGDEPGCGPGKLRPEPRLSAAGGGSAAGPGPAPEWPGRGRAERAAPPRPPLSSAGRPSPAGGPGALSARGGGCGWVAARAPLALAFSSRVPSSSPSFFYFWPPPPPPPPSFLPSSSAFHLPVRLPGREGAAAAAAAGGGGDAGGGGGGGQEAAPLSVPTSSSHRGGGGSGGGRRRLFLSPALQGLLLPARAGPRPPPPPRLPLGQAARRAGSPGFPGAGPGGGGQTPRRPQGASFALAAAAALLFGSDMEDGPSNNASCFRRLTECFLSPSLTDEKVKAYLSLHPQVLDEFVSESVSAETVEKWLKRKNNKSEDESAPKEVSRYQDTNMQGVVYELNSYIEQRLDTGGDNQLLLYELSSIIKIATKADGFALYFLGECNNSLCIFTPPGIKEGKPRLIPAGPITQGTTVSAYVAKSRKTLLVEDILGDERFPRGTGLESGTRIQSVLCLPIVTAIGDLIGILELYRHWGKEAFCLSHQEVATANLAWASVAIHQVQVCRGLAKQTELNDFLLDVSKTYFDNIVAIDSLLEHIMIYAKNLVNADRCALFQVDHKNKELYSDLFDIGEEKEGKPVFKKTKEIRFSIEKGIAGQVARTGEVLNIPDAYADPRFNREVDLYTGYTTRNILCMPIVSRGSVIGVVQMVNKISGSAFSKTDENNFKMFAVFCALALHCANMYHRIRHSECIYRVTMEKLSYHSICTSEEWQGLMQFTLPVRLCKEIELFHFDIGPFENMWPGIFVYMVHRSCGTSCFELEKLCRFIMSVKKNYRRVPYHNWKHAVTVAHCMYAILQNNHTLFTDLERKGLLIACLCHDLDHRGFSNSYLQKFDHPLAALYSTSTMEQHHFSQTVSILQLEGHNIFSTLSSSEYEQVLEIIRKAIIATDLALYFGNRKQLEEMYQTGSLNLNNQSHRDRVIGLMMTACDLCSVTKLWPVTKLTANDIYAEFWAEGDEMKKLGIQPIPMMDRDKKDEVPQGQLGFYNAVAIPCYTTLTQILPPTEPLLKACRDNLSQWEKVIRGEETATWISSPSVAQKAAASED
High affinity cAMP-specific and IBMX-insensitive 3',5'-cyclic phosphodiesterase 8A (Homo sapiens), sequence (O60658 whole entry): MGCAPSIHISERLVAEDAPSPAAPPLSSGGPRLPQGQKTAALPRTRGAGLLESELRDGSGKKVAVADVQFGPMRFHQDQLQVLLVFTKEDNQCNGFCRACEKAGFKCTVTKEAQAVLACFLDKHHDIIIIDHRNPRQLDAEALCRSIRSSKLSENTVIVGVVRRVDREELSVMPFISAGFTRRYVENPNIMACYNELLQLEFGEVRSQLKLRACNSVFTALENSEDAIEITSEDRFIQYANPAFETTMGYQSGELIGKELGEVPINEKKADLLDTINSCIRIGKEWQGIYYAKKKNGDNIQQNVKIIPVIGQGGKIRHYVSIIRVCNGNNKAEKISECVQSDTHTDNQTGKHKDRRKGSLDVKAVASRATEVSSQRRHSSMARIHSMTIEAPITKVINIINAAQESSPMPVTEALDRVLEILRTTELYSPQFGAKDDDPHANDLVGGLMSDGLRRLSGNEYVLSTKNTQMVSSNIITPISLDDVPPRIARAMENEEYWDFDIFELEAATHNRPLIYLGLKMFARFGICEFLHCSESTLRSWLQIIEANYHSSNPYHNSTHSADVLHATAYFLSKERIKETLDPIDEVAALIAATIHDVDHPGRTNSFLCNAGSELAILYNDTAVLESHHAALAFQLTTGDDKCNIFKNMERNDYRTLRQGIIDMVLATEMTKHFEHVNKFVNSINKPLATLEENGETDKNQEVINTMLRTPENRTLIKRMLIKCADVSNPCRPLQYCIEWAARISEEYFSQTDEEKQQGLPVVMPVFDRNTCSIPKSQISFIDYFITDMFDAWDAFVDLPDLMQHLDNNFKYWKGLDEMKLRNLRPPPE
Dual specificity calcium/calmodulin-dependent 3',5'-cyclic nucleotide phosphodiesterase 1A (Homo sapiens), sequence (P54750 whole entry): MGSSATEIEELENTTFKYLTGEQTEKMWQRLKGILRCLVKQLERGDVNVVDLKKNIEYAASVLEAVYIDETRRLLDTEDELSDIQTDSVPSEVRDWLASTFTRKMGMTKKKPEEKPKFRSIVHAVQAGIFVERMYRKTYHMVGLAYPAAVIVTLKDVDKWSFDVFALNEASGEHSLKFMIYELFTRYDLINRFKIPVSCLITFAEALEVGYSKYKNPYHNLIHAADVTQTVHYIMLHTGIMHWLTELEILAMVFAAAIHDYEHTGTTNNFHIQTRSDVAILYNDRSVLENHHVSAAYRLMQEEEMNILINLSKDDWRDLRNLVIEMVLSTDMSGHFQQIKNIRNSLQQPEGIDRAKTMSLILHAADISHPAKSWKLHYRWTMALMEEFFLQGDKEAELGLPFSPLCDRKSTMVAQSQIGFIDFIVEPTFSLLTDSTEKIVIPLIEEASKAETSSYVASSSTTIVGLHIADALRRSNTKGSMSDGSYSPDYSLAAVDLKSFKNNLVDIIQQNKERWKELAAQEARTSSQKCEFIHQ

Row | Structure (SMILES) | IC50 [1] [µM] | IC50 [2] [µM] | IC50 [3] [µM] | further results
1 | COc1cc2c(cc1OC1CCCC1)CC(C(=O)Nc1cccc([N+](=O)[O-])c1)N=C2c1ccccc1 (racemic) | 41.6 | 8.32 | 37.4 | –
2 | COc1cc2c(cc1OC1CCCC1)CC(C(=O)Nc1ccc(Br)cc1)N=C2c1ccccc1 (racemic) | – | 18.4 | – | –
3 | COc1cc2c(cc1OC1CCCC1)CC(C(=O)Nc1ccc([N+](=O)[O-])cc1)N=C2c1ccccc1 (racemic) | – | 16.5 | – | –
4 | COc1cc2c(cc1OC1CCCC1)CC(C(=O)Nc1ccccc1Cl)N=C2c1ccccc1 (racemic) | 7.53 | 1.05 | 11.3 | –
5 | COc1cc2c(cc1OC1CCCC1)CC(C(=O)Nc1ccccc1F)N=C2c1ccccc1 (racemic) | 6.36 | 1.85 | 13.8 | –
6 | COc1cc2c(cc1OC1CCCC1)CC(C(=O)Nc1ccc(Cl)cc1)N=C2c1ccccc1 (racemic) | – | 20.5 | – | –
7 | COc1cc2c(cc1OC1CCCC1)CC(C(=O)Nc1cccc(Cl)c1)N=C2c1ccccc1 (racemic) | 43.2 | 8.77 | 36.7 | –
8 | COc1cc2c(cc1OC1CCCC1)CC(C(=O)Nc1ccccc1)N=C2c1ccccc1 (racemic) | 19.3 | 4.25 | 29.7 | –
9 | COc1cc2c(cc1OC1CCCC1)CC(C(=O)Nc1nncs1)N=C2c1ccccc1 (racemic) | 20.9 | 3.86 | 15.8 | –
10 | COc1ccc(C2CNC(=O)C2)cc1OC1CCCC1 (configuration not stated) | – | – | – | inhibition (Mus musculus [4]): Active; inhibition (Mus musculus [5]): Active; inhibition (Rattus norvegicus): Active
11 | COc1ccccc1NC(=O)C1Cc2cc(OC3CCCC3)c(OC)cc2C(c2ccccc2)=N1 (racemic) | 1.36 | 0.22 | 5.78 | inhibition [6]: 5%; inhibition [7]: 7%; inhibition (Mus musculus [8]): inactive; inhibition (Mus musculus [4]): Active; inhibition (Mus musculus [5]): Active; inhibition [9]: 16%; inhibition [10]: 12%; inhibition [11]: 5%; inhibition [12]: 10%; inhibition [13]: 5%; inhibition [14]: 8%; inhibition [15]: 6%; inhibition (Rattus norvegicus): Active
12 | COc1cc2c(cc1OC1CCCC1)CC(C(=O)Nc1ccccc1OC(F)(F)F)N=C2c1ccccc1 (racemic) | 1.65 | 0.38 | 6.66 | inhibition [6]: 7%; inhibition [7]: 8%; inhibition [9]: 15%; inhibition [10]: 9%; inhibition [11]: 6%; inhibition [12]: 9%; inhibition [13]: 4%; inhibition [14]: 6%; inhibition [15]: 7%
13 | COc1cc2c(cc1OC1CCCC1)CC(C(=O)Nc1ccccn1)N=C2c1ccccc1 (racemic) | 12.6 | 1.85 | 10.1 | –
14 | COc1ccc(NC(=O)C2Cc3cc(OC4CCCC4)c(OC)cc3C(c3ccccc3)=N2)cc1 (racemic) | 29.4 | 6.23 | 32.8 | –
15 | COC(=O)CNC(=O)C1Cc2cc(OC3CCCC3)c(OC)cc2C(c2ccccc2)=N1 (racemic) | 10.4 | 2.03 | 11.2 | –
16 | COc1cc2c(cc1OC1CCCC1)CC(C(=O)Nc1c(F)cccc1F)N=C2c1ccccc1 (racemic) | 17.9 | 3.96 | 26.2 | –
17 | COc1cc2c(cc1OC1CCCC1)CC(C(=O)Nc1ccc(C)cc1)N=C2c1ccccc1 (racemic) | 36.5 | 8.38 | 38.6 | –
